Laboratory results reported in BigSolDB 2.1.

## Cc1c(C(=O)/C=C/c2ccccc2)[n+](=O)c2ccccc2n1[O-]
In DMF, 283.15 K
  solubility (mole fraction): 0.00549
In DMF, 288.15 K
  solubility (mole fraction): 0.00639
In DMF, 293.15 K
  solubility (mole fraction): 0.00748
In DMF, 298.15 K
  solubility (mole fraction): 0.00856
In DMF, 303.15 K
  solubility (mole fraction): 0.00978
In DMF, 308.15 K
  solubility (mole fraction): 0.0111
In DMF, 313.15 K
  solubility (mole fraction): 0.0127
In DMF, 318.15 K
  solubility (mole fraction): 0.0145
In DMF, 323.15 K
  solubility (mole fraction): 0.0163
In DMF, 328.15 K
  solubility (mole fraction): 0.0187
In DMSO, 293.15 K
  solubility (mole fraction): 0.00722
In DMSO, 298.15 K
  solubility (mole fraction): 0.00807
In DMSO, 303.15 K
  solubility (mole fraction): 0.00913
In DMSO, 308.15 K
  solubility (mole fraction): 0.0103
In DMSO, 313.15 K
  solubility (mole fraction): 0.0117
In DMSO, 318.15 K
  solubility (mole fraction): 0.0132
In DMSO, 323.15 K
  solubility (mole fraction): 0.0149
In DMSO, 328.15 K
  solubility (mole fraction): 0.0167
In ethanol, 283.15 K
  solubility (mole fraction): 9.81e-05
In ethanol, 288.15 K
  solubility (mole fraction): 0.000123
In ethanol, 293.15 K
  solubility (mole fraction): 0.000151
In ethanol, 298.15 K
  solubility (mole fraction): 0.00019
In ethanol, 303.15 K
  solubility (mole fraction): 0.000233
In ethanol, 308.15 K
  solubility (mole fraction): 0.000288
In ethanol, 313.15 K
  solubility (mole fraction): 0.000351
In ethanol, 318.15 K
  solubility (mole fraction): 0.000425
In ethanol, 323.15 K
  solubility (mole fraction): 0.000512
In ethanol, 328.15 K
  solubility (mole fraction): 0.000611
In isopropanol, 283.15 K
  solubility (mole fraction): 8.14e-05
In isopropanol, 288.15 K
  solubility (mole fraction): 0.000104
In isopropanol, 293.15 K
  solubility (mole fraction): 0.000133
In isopropanol, 298.15 K
  solubility (mole fraction): 0.00017
In isopropanol, 303.15 K
  solubility (mole fraction): 0.000217
In isopropanol, 308.15 K
  solubility (mole fraction): 0.000278
In isopropanol, 313.15 K
  solubility (mole fraction): 0.000348
In isopropanol, 318.15 K
  solubility (mole fraction): 0.000437
In isopropanol, 323.15 K
  solubility (mole fraction): 0.000541
In isopropanol, 328.15 K
  solubility (mole fraction): 0.000668
In water, 283.15 K
  solubility (mole fraction): 2.49e-06
In water, 288.15 K
  solubility (mole fraction): 2.93e-06
In water, 293.15 K
  solubility (mole fraction): 3.4e-06
In water, 298.15 K
  solubility (mole fraction): 3.95e-06
In water, 303.15 K
  solubility (mole fraction): 4.62e-06
In water, 308.15 K
  solubility (mole fraction): 5.32e-06
In water, 313.15 K
  solubility (mole fraction): 6.12e-06
In water, 318.15 K
  solubility (mole fraction): 7e-06
In water, 323.15 K
  solubility (mole fraction): 7.96e-06
In water, 328.15 K
  solubility (mole fraction): 9.03e-06
